Reference: PubChem BioAssay (NCI)
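Five concentrations, 48 hours, 96-well plates. TGI denotes the concentration required for complete inhibition of growth.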

Assays:
Test in all cases: NCI-60 cell line screen, 48 h
786-0 renal = test system: 786-0 renal
A498 renal = test system: A498 renal
A549 NSCLC = test system: A549 NSCLC
ACHN renal = test system: ACHN renal
CAKI-1 renal = test system: CAKI-1 renal
CCRF-CEM leukemia = test system: CCRF-CEM leukemia
DMS 114 small cell lung = test system: DMS 114 small cell lung
DMS 273 small cell lung = test system: DMS 273 small cell lung
EKVX NSCLC = test system: EKVX NSCLC
HCC-2998 colon = test system: HCC-2998 colon
HCT-116 colon = test system: HCT-116 colon
HCT-15 colon = test system: HCT-15 colon
HL-60(TB) leukemia = test system: HL-60(TB) leukemia
HOP-62 NSCLC = test system: HOP-62 NSCLC
HT29 colon = test system: HT29 colon
IGROV1 ovarian = test system: IGROV1 ovarian
K-562 leukemia = test system: K-562 leukemia
KM20L2 colon = test system: KM20L2 colon
LOX IMVI melanoma = test system: LOX IMVI melanoma
LXFL 529 NSCLC = test system: LXFL 529 NSCLC
M14 melanoma = test system: M14 melanoma
MOLT-4 leukemia = test system: MOLT-4 leukemia
NCI-H226 lung = test system: NCI-H226 lung
NCI-H23 lung = test system: NCI-H23 lung
NCI-H460 lung = test system: NCI-H460 lung
NCI-H522 lung = test system: NCI-H522 lung
OVCAR-3 ovarian = test system: OVCAR-3 ovarian
OVCAR-4 ovarian = test system: OVCAR-4 ovarian
OVCAR-5 ovarian = test system: OVCAR-5 ovarian
OVCAR-8 ovarian = test system: OVCAR-8 ovarian
RPMI-8226 leukemia = test system: RPMI-8226 leukemia
RXF 393 renal = test system: RXF 393 renal
SF-268 CNS = test system: SF-268 CNS
SF-295 CNS = test system: SF-295 CNS
SF-539 CNS = test system: SF-539 CNS
SK-MEL-2 melanoma = test system: SK-MEL-2 melanoma
SK-MEL-28 melanoma = test system: SK-MEL-28 melanoma
SN12C renal = test system: SN12C renal
SNB-19 CNS = test system: SNB-19 CNS
SNB-78 CNS = test system: SNB-78 CNS
SR leukemia = test system: SR leukemia
SW-620 colon = test system: SW-620 colon
TK-10 renal = test system: TK-10 renal
U251 CNS = test system: U251 CNS
UACC-257 melanoma = test system: UACC-257 melanoma
UACC-62 melanoma = test system: UACC-62 melanoma
UO-31 renal = test system: UO-31 renal
COLO 205 colon = test system: COLO 205 colon
DLD-1 colon = test system: DLD-1 colon
HOP-92 NSCLC = test system: HOP-92 NSCLC
KM12 colon = test system: KM12 colon
M19-MEL melanoma = test system: M19-MEL melanoma
MALME-3M melanoma = test system: MALME-3M melanoma
SK-MEL-5 melanoma = test system: SK-MEL-5 melanoma
SK-OV-3 ovarian = test system: SK-OV-3 ovarian
SNB-75 CNS = test system: SNB-75 CNS

With `CC(SC(=S)Nc1cccc(F)c1)C(=O)O` (configuration not stated) the TGI (786-0 renal) was over 100 µM, the TGI (A498 renal) was 77 µM and the TGI (A549 NSCLC) was over 100 µM. The TGI (ACHN renal) was over 100 µM, the TGI (CAKI-1 renal) was over 100 µM and the TGI (CCRF-CEM leukemia) was 55.3 µM. It also gave a TGI (DMS 114 small cell lung) of 31.7 µM, a TGI (DMS 273 small cell lung) of 24.5 µM and a TGI (EKVX NSCLC) of over 100 µM. The TGI (HCC-2998 colon) was over 100 µM, the TGI (HCT-116 colon) was 37.6 µM and the TGI (HCT-15 colon) was 83.7 µM. It also gave a TGI (HL-60(TB) leukemia) of 29.4 µM, a TGI (HOP-62 NSCLC) of 59.6 µM and a TGI (HT29 colon) of over 100 µM. For the same compound, the TGI (IGROV1 ovarian) was 11 µM, the TGI (K-562 leukemia) was 38.9 µM and the TGI (KM20L2 colon) was 90.8 µM. For the same compound, the TGI (LOX IMVI melanoma) was 32.4 µM, the TGI (LXFL 529 NSCLC) was 69.1 µM and the TGI (M14 melanoma) was 35 µM. The TGI (MOLT-4 leukemia) was 46.5 µM, the TGI (NCI-H226 lung) was 44.3 µM and the TGI (NCI-H23 lung) was 52.3 µM. The TGI (NCI-H460 lung) was 68 µM, the TGI (NCI-H522 lung) was 34.9 µM and the TGI (OVCAR-3 ovarian) was over 100 µM. The TGI (OVCAR-4 ovarian) was over 100 µM, the TGI (OVCAR-5 ovarian) was over 100 µM and the TGI (OVCAR-8 ovarian) was 76 µM. For the same compound, the TGI (RPMI-8226 leukemia) was 34.3 µM, the TGI (RXF 393 renal) was 29.1 µM and the TGI (SF-268 CNS) was 32.6 µM. It also gave a TGI (SF-295 CNS) of 52.7 µM, a TGI (SF-539 CNS) of 38 µM and a TGI (SK-MEL-2 melanoma) of 46.5 µM. It also gave a TGI (SK-MEL-28 melanoma) of 32.1 µM, a TGI (SN12C renal) of over 100 µM and a TGI (SNB-19 CNS) of 99.6 µM. The TGI (SNB-78 CNS) was over 100 µM, the TGI (SR leukemia) was 30.8 µM and the TGI (SW-620 colon) was over 100 µM. It also gave a TGI (TK-10 renal) of over 100 µM, a TGI (U251 CNS) of 84.9 µM and a TGI (UACC-257 melanoma) of 33.5 µM. It also gave a TGI (UACC-62 melanoma) of 36.4 µM and a TGI (UO-31 renal) of 74.5 µM.

`COC(=O)c1nc(-c2ccc(Cl)c(Cl)c2)nc2ccc(Cl)cc12` gave a TGI (786-0 renal) of 73 µM, a TGI (A498 renal) of over 100 µM and a TGI (A549 NSCLC) of over 100 µM. It also gave a TGI (ACHN renal) of over 100 µM, a TGI (COLO 205 colon) of over 100 µM and a TGI (DLD-1 colon) of over 100 µM. For the same compound, the TGI (DMS 114 small cell lung) was over 100 µM, the TGI (DMS 273 small cell lung) was over 100 µM and the TGI (EKVX NSCLC) was over 100 µM. The TGI (HCC-2998 colon) was over 100 µM, the TGI (HCT-116 colon) was over 100 µM and the TGI (HL-60(TB) leukemia) was over 100 µM. It also gave a TGI (HOP-92 NSCLC) of 37.7 µM, a TGI (HT29 colon) of over 100 µM and a TGI (IGROV1 ovarian) of over 100 µM. It also gave a TGI (KM12 colon) of over 100 µM, a TGI (KM20L2 colon) of over 100 µM and a TGI (LXFL 529 NSCLC) of over 100 µM. For the same compound, the TGI (M19-MEL melanoma) was over 100 µM, the TGI (MALME-3M melanoma) was over 100 µM and the TGI (NCI-H23 lung) was over 100 µM. It also gave a TGI (NCI-H460 lung) of over 100 µM, a TGI (OVCAR-5 ovarian) of over 100 µM and a TGI (OVCAR-8 ovarian) of over 100 µM. For the same compound, the TGI (RPMI-8226 leukemia) was over 100 µM, the TGI (RXF 393 renal) was 63.5 µM and the TGI (SF-268 CNS) was over 100 µM. The TGI (SF-295 CNS) was over 100 µM, the TGI (SF-539 CNS) was 84.1 µM and the TGI (SK-MEL-2 melanoma) was over 100 µM. For the same compound, the TGI (SK-MEL-28 melanoma) was over 100 µM, the TGI (SK-MEL-5 melanoma) was over 100 µM and the TGI (SK-OV-3 ovarian) was 43.1 µM. The TGI (SN12C renal) was over 100 µM, the TGI (SNB-19 CNS) was over 100 µM and the TGI (SNB-75 CNS) was 51.3 µM. For the same compound, the TGI (SNB-78 CNS) was over 100 µM, the TGI (SR leukemia) was over 100 µM and the TGI (SW-620 colon) was over 100 µM. It also gave a TGI (TK-10 renal) of over 100 µM, a TGI (U251 CNS) of over 100 µM and a TGI (UACC-257 melanoma) of over 100 µM. For the same compound, the TGI (UACC-62 melanoma) was over 100 µM and the TGI (UO-31 renal) was over 100 µM.

`CN(C)c1ccc(C=NC23CC4CC(CC(C4)C2)C3)cc1` gave a TGI (786-0 renal) of over 100 µM, a TGI (A498 renal) of over 100 µM and a TGI (A549 NSCLC) of over 100 µM. The TGI (ACHN renal) was over 100 µM, the TGI (CAKI-1 renal) was over 100 µM and the TGI (CCRF-CEM leukemia) was over 100 µM. It also gave a TGI (COLO 205 colon) of over 100 µM, a TGI (DMS 114 small cell lung) of over 100 µM and a TGI (DMS 273 small cell lung) of over 100 µM. The TGI (EKVX NSCLC) was over 100 µM, the TGI (HCC-2998 colon) was over 100 µM and the TGI (HCT-116 colon) was over 100 µM. For the same compound, the TGI (HCT-15 colon) was over 100 µM, the TGI (HL-60(TB) leukemia) was over 100 µM and the TGI (HOP-62 NSCLC) was over 100 µM. It also gave a TGI (HT29 colon) of over 100 µM, a TGI (IGROV1 ovarian) of over 100 µM and a TGI (K-562 leukemia) of over 100 µM. For the same compound, the TGI (KM12 colon) was over 100 µM, the TGI (KM20L2 colon) was over 100 µM and the TGI (LOX IMVI melanoma) was over 100 µM. For the same compound, the TGI (M14 melanoma) was over 100 µM, the TGI (M19-MEL melanoma) was over 100 µM and the TGI (MALME-3M melanoma) was over 100 µM. It also gave a TGI (MOLT-4 leukemia) of over 100 µM, a TGI (NCI-H226 lung) of over 100 µM and a TGI (NCI-H23 lung) of over 100 µM. The TGI (NCI-H460 lung) was over 100 µM, the TGI (NCI-H522 lung) was over 100 µM and the TGI (OVCAR-3 ovarian) was over 100 µM. For the same compound, the TGI (OVCAR-4 ovarian) was over 100 µM, the TGI (OVCAR-5 ovarian) was over 100 µM and the TGI (OVCAR-8 ovarian) was over 100 µM. For the same compound, the TGI (RPMI-8226 leukemia) was over 100 µM, the TGI (RXF 393 renal) was over 100 µM and the TGI (SF-268 CNS) was over 100 µM. For the same compound, the TGI (SF-295 CNS) was over 100 µM, the TGI (SF-539 CNS) was over 100 µM and the TGI (SK-MEL-2 melanoma) was over 100 µM. It also gave a TGI (SK-MEL-28 melanoma) of over 100 µM, a TGI (SK-OV-3 ovarian) of over 100 µM and a TGI (SN12C renal) of over 100 µM. It also gave a TGI (SNB-19 CNS) of over 100 µM, a TGI (SNB-78 CNS) of over 100 µM and a TGI (SR leukemia) of over 100 µM. It also gave a TGI (SW-620 colon) of over 100 µM, a TGI (TK-10 renal) of over 100 µM and a TGI (U251 CNS) of over 100 µM. It also gave a TGI (UACC-257 melanoma) of over 100 µM, a TGI (UACC-62 melanoma) of over 100 µM and a TGI (UO-31 renal) of over 100 µM.
